Test results taken from US20200060276A1, “THIAZOLE COMPOUND AND HERBICIDE” (OAT Agrio Co., Ltd., priority 2017, published 2020).

Legend:
Assay type in all cases: in vivo
[1] = test system: Cyperus microiria; experiment: Test for Herbicidal Effect in Flooding Treatment (#1), CYMIC; settings: flooding treatment at seeding, dose 2 kg/ha, visual observation on day 21
Outline: (§1)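 Sieved soil in cups was flooded and left 24 h before weed seeds were sown. Compounds in acetone, diluted with Tween 80-containing water, were dropped over the whole surface at 2 kg/ha. After 21 days in a glasshouse, growth inhibition was scored visually from 0 (<10%) to 5 (≥90% or complete withering).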

[2] = test system: Monochoria vaginalis; experiment: Test for Herbicidal Effect in Flooding Treatment (#1), MONVA; settings: flooding treatment at seeding, dose 2 kg/ha, visual observation on day 21
Outline: as §1

[3] = test system: Echinochloa crus-galli (L.) P. Beauv. var. formosensis Ohwi; experiment: Test for Herbicidal Effect in Flooding Treatment (#2), ECHDG at 2-2.5 leaf stage; settings: flooding treatment at 2-2.5 leaf stage, dose 0.2 kg/ha, visual observation on day 21
Outline: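 Flooded muddy soil was seeded with the weed, and at 2–2.5 leaf stage compound in acetone/Tween 80 water was dropped on the water surface at 0.2 kg/ha. Plants were kept in a glasshouse and scored visually on day 21 from 0 (<10% growth inhibition) to 5 (≥90% or complete withering).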

[4] = test system: Echinochloa crus-galli (L.) P. Beauv. var. formosensis Ohwi; experiment: Test for Herbicidal Effect in Flooding Treatment (#1), ECHDG; settings: flooding treatment at seeding, dose 2 kg/ha, visual observation on day 21
Outline: as §1

[5] = test system: Scirpus juncoides; experiment: Test for Herbicidal Effect in Flooding Treatment (#1), SCIJU; settings: flooding treatment at seeding, dose 2 kg/ha, visual observation on day 21
Outline: as §1

SMILES	CYMIC #1 herbicidal effect (growth inhibition grade) [1]	MONVA #1 herbicidal effect (growth inhibition grade) [2]	ECHDG (2-2.5L) #2 herbicidal effect (growth inhibition grade) [3]	ECHDG #1 herbicidal effect (growth inhibition grade) [4]	SCIJU #1 herbicidal effect (growth inhibition grade) [5]
CCOc1c(C)ccc(C)c1CS(=O)(=O)c1ncc(Cl)s1 [Compound 1C-28]	5 (Growth inhibition effect is equal to or greater than 90%, or complete withering is achieved)	5 (Growth inhibition effect is equal to or greater than 90%, or complete withering is achieved)	5 (Growth inhibition effect is equal to or greater than 90%, or complete withering is achieved)	5 (Growth inhibition effect is equal to or greater than 90%, or complete withering is achieved)	5 (Growth inhibition effect is equal to or greater than 90%, or complete withering is achieved)
CCOc1ccc(CS(=O)(=O)c2ncc(Cl)s2)c(F)c1F [Compound 1C-99]	5 (Growth inhibition effect is equal to or greater than 90%, or complete withering is achieved)	5 (Growth inhibition effect is equal to or greater than 90%, or complete withering is achieved)	5 (Growth inhibition effect is equal to or greater than 90%, or complete withering is achieved)	5 (Growth inhibition effect is equal to or greater than 90%, or complete withering is achieved)	5 (Growth inhibition effect is equal to or greater than 90%, or complete withering is achieved)
COc1ccccc1CS(=O)(=O)c1ncc(Cl)s1 [Compound 1C-2]	5 (Growth inhibition effect is equal to or greater than 90%, or complete withering is achieved)	5 (Growth inhibition effect is equal to or greater than 90%, or complete withering is achieved)	5 (Growth inhibition effect is equal to or greater than 90%, or complete withering is achieved)	5 (Growth inhibition effect is equal to or greater than 90%, or complete withering is achieved)	5 (Growth inhibition effect is equal to or greater than 90%, or complete withering is achieved)
CCOc1ccc(CS(=O)(=O)c2ncc(Cl)s2)cc1C(F)(F)F [Compound 1C-98]	5 (Growth inhibition effect is equal to or greater than 90%, or complete withering is achieved)	5 (Growth inhibition effect is equal to or greater than 90%, or complete withering is achieved)	1 (Growth inhibition effect is equal to or greater than 10%, and less than 30%)	5 (Growth inhibition effect is equal to or greater than 90%, or complete withering is achieved)	5 (Growth inhibition effect is equal to or greater than 90%, or complete withering is achieved)
CCOc1ccc(CS(=O)(=O)c2ncc(Cl)s2)c(Cl)c1Cl [Compound 1C-100]	5 (Growth inhibition effect is equal to or greater than 90%, or complete withering is achieved)	5 (Growth inhibition effect is equal to or greater than 90%, or complete withering is achieved)	5 (Growth inhibition effect is equal to or greater than 90%, or complete withering is achieved)	5 (Growth inhibition effect is equal to or greater than 90%, or complete withering is achieved)	5 (Growth inhibition effect is equal to or greater than 90%, or complete withering is achieved)
CC(C)Oc1ccccc1CS(=O)(=O)c1ncc(Cl)s1 [Compound 1C-36]	5 (Growth inhibition effect is equal to or greater than 90%, or complete withering is achieved)	5 (Growth inhibition effect is equal to or greater than 90%, or complete withering is achieved)	4 (Growth inhibition effect is equal to or greater than 70%, and less than 90%)	5 (Growth inhibition effect is equal to or greater than 90%, or complete withering is achieved)	5 (Growth inhibition effect is equal to or greater than 90%, or complete withering is achieved)
CCOc1cc(C)c(Cl)c(C)c1CS(=O)(=O)c1ncc(Cl)s1 [Compound 1C-35]	5 (Growth inhibition effect is equal to or greater than 90%, or complete withering is achieved)	5 (Growth inhibition effect is equal to or greater than 90%, or complete withering is achieved)	5 (Growth inhibition effect is equal to or greater than 90%, or complete withering is achieved)	5 (Growth inhibition effect is equal to or greater than 90%, or complete withering is achieved)	5 (Growth inhibition effect is equal to or greater than 90%, or complete withering is achieved)
CCOc1cc(CS(=O)(=O)c2ncc(Cl)s2)cc(C(F)(F)F)c1 [Compound 1C-79]	5 (Growth inhibition effect is equal to or greater than 90%, or complete withering is achieved)	5 (Growth inhibition effect is equal to or greater than 90%, or complete withering is achieved)	2 (Growth inhibition effect is equal to or greater than 30%, and less than 50%)	5 (Growth inhibition effect is equal to or greater than 90%, or complete withering is achieved)	5 (Growth inhibition effect is equal to or greater than 90%, or complete withering is achieved)
CCOc1cc(F)cc(F)c1CS(=O)(=O)c1ncc(Cl)s1 [Compound 1C-31]	5 (Growth inhibition effect is equal to or greater than 90%, or complete withering is achieved)	5 (Growth inhibition effect is equal to or greater than 90%, or complete withering is achieved)	5 (Growth inhibition effect is equal to or greater than 90%, or complete withering is achieved)	5 (Growth inhibition effect is equal to or greater than 90%, or complete withering is achieved)	5 (Growth inhibition effect is equal to or greater than 90%, or complete withering is achieved)
O=S(=O)(Cc1cc(Br)ccc1OC(F)(F)F)c1ncc(Cl)s1 [Compound 1C-47]	5 (Growth inhibition effect is equal to or greater than 90%, or complete withering is achieved)	5 (Growth inhibition effect is equal to or greater than 90%, or complete withering is achieved)	4 (Growth inhibition effect is equal to or greater than 70%, and less than 90%)	5 (Growth inhibition effect is equal to or greater than 90%, or complete withering is achieved)	5 (Growth inhibition effect is equal to or greater than 90%, or complete withering is achieved)
O=S(=O)(Cc1cc(Br)ccc1OC(F)F)c1ncc(Cl)s1 [Compound 1C-40]	5 (Growth inhibition effect is equal to or greater than 90%, or complete withering is achieved)	5 (Growth inhibition effect is equal to or greater than 90%, or complete withering is achieved)	5 (Growth inhibition effect is equal to or greater than 90%, or complete withering is achieved)	5 (Growth inhibition effect is equal to or greater than 90%, or complete withering is achieved)	5 (Growth inhibition effect is equal to or greater than 90%, or complete withering is achieved)
CCOc1cc(CS(=O)(=O)c2ncc(Cl)s2)cc(F)c1F [Compound 1C-83]	5 (Growth inhibition effect is equal to or greater than 90%, or complete withering is achieved)	5 (Growth inhibition effect is equal to or greater than 90%, or complete withering is achieved)	4 (Growth inhibition effect is equal to or greater than 70%, and less than 90%)	5 (Growth inhibition effect is equal to or greater than 90%, or complete withering is achieved)	5 (Growth inhibition effect is equal to or greater than 90%, or complete withering is achieved)
CCOc1c(C)cccc1CS(=O)(=O)c1ncc(Cl)s1 [Compound 1C-11]	5 (Growth inhibition effect is equal to or greater than 90%, or complete withering is achieved)	5 (Growth inhibition effect is equal to or greater than 90%, or complete withering is achieved)	5 (Growth inhibition effect is equal to or greater than 90%, or complete withering is achieved)	5 (Growth inhibition effect is equal to or greater than 90%, or complete withering is achieved)	5 (Growth inhibition effect is equal to or greater than 90%, or complete withering is achieved)
